Literature values in US12472143B2, “Blend compositions for oral administration as a rapidly dissolving powder and/or suspension” (MARENDA PHARMACEUTICALS LLC, priority 2017, dated 2025).

solubility in water: sparingly soluble
SMILES: CC(C)Cc1ccc(C(C)C(=O)O)cc1 (stereo not shown) [Ibuprofen]
